Measurements published in patent US6193985A, “Tocopherol compositions for delivery of biologically active agents” (priority 1994, dated 2001).
Like-named read-outs stand apart in the source and are kept apart here.

How the values were obtained:
[1] = Text: For the following, non-limiting, sparingly soluble drugs in water, the solubility in α-tocopherol and sesame oil are listed in Table 1:
Sesame oil was chosen as the reference, because it is a very commonly used and well tolerated vegetable oil. The solubilities in sesame oil and α-tocopherol were investigated by visual inspection of the saturation point.

[2] = cited from earlier work
[3] = cited from earlier work; remark: listed apart in the source
[4] = solubility in sesame oil (reference)

In the case of Cc1ncc2n1-c1ccc(Cl)cc1C(c1ccccc1F)=NC2 [Midazolam, midazolam], the “g drug in 100 g of α-tocopherol” value ([1]; solubility in α-tocopherol) is given as > 13 g drug in 100 g and the first-pass effect ([2]; after oral administration) is given as “very high first-pass effect”.

With CCCC1O[C@@H]2C[C@H]3[C@@H]4CCC5=CC(=O)C=C[C@]5(C)[C@H]4[C@@H](O)C[C@]3(C)[C@]2(C(=O)CO)O1 (stereo partly shown) [Budesonide, budesonide] the “g drug in 100 g of sesame oil” value [1, 4] was < 0.1 g drug in 100 g.

In the case of CCN(CC)C(=S)SSC(=S)N(CC)CC [Disulfiram, disulfiram], the “g drug in 100 g of α-tocopherol” value ([1]; solubility in α-tocopherol) is reported as 5 g drug in 100 g.

For Cc1ncc([N+](=O)[O-])n1CCOC(=O)c1ccccc1 [Metronidazole benzoate], the “g drug in 100 g of sesame oil” value [1, 4] was < 2 g drug in 100 g.

For Clc1ccc(COC(Cn2ccnc2)c2ccc(Cl)cc2Cl)c(Cl)c1 (stereo not shown) [Miconazole, miconazole], the “g drug in 100 g of α-tocopherol” value ([1]; solubility in α-tocopherol) was 60 g drug in 100 g.

With CC(=O)[C@H]1CC[C@H]2[C@@H]3CCC4=CC(=O)CC[C@]4(C)[C@H]3CC[C@]12C [Progesterone] the “g drug in 100 g of α-tocopherol” value ([1]; solubility in α-tocopherol) was > 30 g drug in 100 g.

In the case of CCN(CC)CCNC(=O)c1cc(Cl)c(N)cc1OC [Metoclopramide], the “g drug in 100 g of sesame oil” value [1] is reported as < 2 g drug in 100 g and the “g drug in 100 g of α-tocopherol” value [1] is reported as 2-4 g drug in 100 g.

For C(=C\c1ccccc1)/CN1CCN(C(c2ccccc2)c2ccccc2)CC1 [Cinnarizine, cinnarizine], the “g drug in 100 g of sesame oil” value [1] is given as 2-4 g drug in 100 g, the “g drug in 100 g of α-tocopherol” value [1] is given as 11-18 g drug in 100 g and the “solubility in water (in words)” value [3] is given as “very low water solubility”. The oral bioavailability ([2]; if dissolved in a vehicle before administration) was “higher oral bioavailability”.
